Assay [1] concerns germinated field corn seeds. Put plainly: Germinated field corn seeds on water plates treated with tetra-sodium salt of EDDS (Example I). The conditions noted are these: after 9 days; for NUMBER OF SEED GERMINATED AND SURVIVED: Field corn, 10 seeds per plate. In kind it is in vivo, Zea mays L. Here is the method:
(§1) Styrofoam plates were each charged with 80 ml. water. The plates are titled: (a) the ‘control’ plates; (b) the ‘Treatment 1’ plates; and (c) the ‘Treatment 2’ plates.
(§2) Into the ‘control’ plates, the ‘Treatment 1’ plates and the ‘Treatment 2’ plates were placed, at the loading of 10 seeds per plate, germinated sweet corn seeds, germinated field corn seeds, germinated snap bean, seeds, germinated cantaloupe melon seeds and germinated soy bean seeds.
(§3) The ‘Treatment 1’ plates were then each treated with 0.1 ml. of a 38% aqueous solution of the tetra-sodium salt of EDDS (having the structure as set forth in FIG. 15), or 0.000475 gm./plate, or 475 ppm per plate.
(§4) The ‘Treatment 2’ plates were then each treated with 1 ml. of a 38% aqueous solution of the tetra-odium salt of EDDS, or 0.00475 gm./plate or 4750 ppm per plate.
(§5) No EDDS salt was added to the ‘control’ plate.
(§6) Over a period of 9 days, each plate had distilled water added thereto, as needed, in order to make up for the evaporation of the water during the 9 day period.
(§7) 9 days after the trial commenced, the number of germinated seeds which survived were as set forth in attached Table I.

Assay [2] concerns germinated cantaloupe melon seeds. Description: Germinated cantaloupe melon seeds on water plates treated with tetra-sodium salt of EDDS (Example I). Particulars: 10 seeds per plate, after 9 days. In kind it is in vivo. Here is the method: as §1, §2, §3, §4, §5, §6, §7
Assay [3] deals with germinated sweet corn seeds. Put plainly: Germinated sweet corn seeds on water plates treated with tetra-sodium salt of EDDS (Example I). The class given is in vivo, Zea mays L. var. saccharata. Particulars: for NUMBER OF SEED GERMINATED AND SURVIVED: Sweet corn, 10 seeds per plate; for germinating-seed stimulating concentration: germinating sweet corn seed, treating solution. How it is done:
as §1, §2, §3, §4, §5, §6, §7

Assay [4] concerns germinated snap bean seeds. Description: Germinated snap bean seeds on water plates treated with tetra-sodium salt of EDDS (Example I). In kind it is in vivo, Phaseolus vulgaris L. The conditions noted are these: Snap beans, 10 seeds per plate, after 9 days. How it is done:
as §1, §2, §3, §4, §5, §6, §7

Assay [5] has as its system Mexican Heather plants. Description: Soil application of IDS and/or EDDS free acids to Mexican heather plants (Example IV). In kind it is in vivo, Cuphea hyssopifolia Kunth. The conditions noted are these: 200 ppm free acid; for root mass versus vegetative growth: within 10 mm of each plant. Here is the method:
Four sets of six Mexican Heather plants each were placed on trays without transplanting. 0.2 gm/liter stock solutions of IDS and EDDS free acids prepared according to Example III, supra, were used, in three different treatments (EDDS alone, IDS alone and a 50:50 mixture of EDDS and IDS) to treat the three sets of plants as set forth in Table IV, attached, by placing the solutions into the soil within 10 mm. of each of the plants. A fourth set was treated with distilled water (the ‘control’ set).

Assay [6] has as its system sweet corn seeds. Description: Sweet corn seeds on water plates treated with IDS salt alone or with EDDS salt (Example II). The class given is in vivo, Zea mays L. var. saccharata. The conditions noted are these: 9 day period; IDS salt 4630 or 463 ppm per plate, or IDS + EDDS salt mixture (Treatment 3). Here is the method:
Styrofoam plates were each charged with 80 ml. water. The plates are titled: (a) the ‘control’ plates; (b) the ‘Treatment 1’ plates; (c) the ‘Treatment 2’ plates and (d) the ‘Treatment 3’ plates.
Into the ‘control’ plates, the ‘Treatment 1’ plates, the ‘Treatment 2’ plates and the ‘Treatment 3’ plates, were placed, at a loading of 6 seeds per plate, sweet corn seeds, field corn seeds, cantaloupe melon seeds and soy bean seeds.
The ‘Treatment 1’ plates were then each treated with 1 ml. of a 37% solution of the tri-potassium salt of IDS (having the structure as set forth in FIG. 17), or 0.00463 gm./plate or 4630 ppm per plate.
The ‘Treatment 2’ plates were then each treated with 0.1 ml. of a 37% solution of the tri-potassium salt of IDS, or 0.000463 gm./plate, or 463 ppm per plate.
The ‘Treatment 3’ plates were then each treated with a mixture 0.5 ml. of a 37% solution of the tri-potassium salt of IDS and 0.5 ml. of a 38% solution of the tetra-sodium salt of EDDS, or 0.000231 gm/plate of the IDS salt and 0.000238 gm./plate of the EDDS salt.
No EDDS or IDS salts were added to the control plate.
Over a period of 9 days, each plate had distilled water added thereto, as needed, in order to make up for the evaporation of water during the 9 day period.
9 days after the trial commenced, the number of germinated seeds which survived were as set forth in attached Table II.

In assay [7] the test system is Lettuce seeds. Particulars: cultured in a fertilizer soln. contg. 100 ppm; cited from earlier work.
Setting [8] is: Treatment 1 (EDDS at 0.1 ml Per liter; 475 ppm per plate).
Where [9] appears, read: Treatment 2 (EDDS at 1 ml Per liter; 4750 ppm per plate).

Counter-ions that a name gives are not always drawn.

`O=C(O)CC(NCCNC(CC(=O)O)C(=O)O)C(=O)O` (mixture of isomers) [tetra-sodium salt of EDDS, N,N′-1,2-ethanediylbis-aspartic acid]: the “NUMBER OF SEED GERMINATED AND SURVIVED” value was 9 in assay [1] (setting [8]); 4 in assay [1] (setting [9]); 1 in assay [2] (setting [8]); 0 in assay [2] (setting [9]); 10 in assay [3] (Treatment 1 (EDDS at 0.1 ml Per liter; 475 ppm per plate), after 9 days); 7 in assay [3] (Treatment 2 (EDDS at 1 ml Per liter; 4750 ppm per plate), after 9 days). Moreover, the “NUMBER OF SEED GERMINATED AND SURVIVED” value in assay [4] (setting [8]) was 5; in assay [4] (setting [9]), 1. The “germination and growth of the field corn” value in assay [1] (Treatment 2 plates (4750 ppm per plate)) is “inhibition of the germination and growth”. Besides, the “germination and growth of the germinated sweet corn seeds, as compared with the control” value in assay [3] (Treatment 1 plates (475 ppm per plate), after 9 days) was “uniform germination and growth”. Also, the “germination and growth of the sweet corn” value in assay [3] (Treatment 2 plates (4750 ppm per plate), after 9 days) was “inhibition of the germination and growth”. For the same molecule, in assay [3] (at a concentration of about 10×10^−4 gram moles per liter), the “action on germinating seed” value is on record as “acts as a germinating seed growth regulator”. Moreover, the germinating-seed stimulating concentration result in assay [3] was “about 1×10^−4 gram moles per liter”.

Turning to `O=C(O)CC(N[C@@H](CC(=O)O)C(=O)O)C(=O)O` (stereo partly shown) [IDS free acid, N-(1,2-dicarboxyethyl)aspartic acid], the “root mass versus vegetative growth” value in assay [5] is on record as “promoted a greater root mass at the expense of vegetative growth, although to a significantly lesser extent than done using EDDS”.

In the case of `O=C(O)CC(N[C@@H](CC(=O)O)C(=O)O)C(=O)O` (stereo partly shown) [tri-potassium salt of IDS, N-(1,2-dicarboxyethyl)aspartic acid], the “germination and uniformity of seedling growth, sweet corn seeds” value in assay [6] was “germinated and the resulting seedlings started to grow more uniformly”. The germinating-seed stimulating concentration result in assay [3] is on record as “about 1×10^−4 gram moles per liter”.

On to `O=C(O)CC(NCCNC(CC(=O)O)C(=O)O)C(=O)O` (mixture of isomers) [EDDS free acid, N,N′-1,2-ethanediylbis-aspartic acid], for which, in assay [5], the “leaf position and internode lengths at the end of the experiment” value was “the plant leaves are lower on the main stem and internode lengths are shortened”; the “root mass versus vegetative growth” value was “promoted a greater root mass at the expense of vegetative growth”.

With `O=C(O)C[C@H](NCCN[C@@H](CC(=O)O)C(=O)O)C(=O)O` [S,S-ethylenediamine-N,N-disuccinic acid], the “plant growth of lettuce” value in assay [7] is on record as “good plant growth”.
